From US20230293403A1, “Compositions Comprising Lipophilic Compounds and One or More (Bio)-Alkanediols” (Symrise AG, priority 2020, published 2023)

Key:
[1] = Maximum solubility of alkanediols in water, visual assessment (Example 6); conditions: assessed visually at ambient temperature after 24 h storage at 5° C.; clear mixture = dissolved
[2] = Solubility of different alkanediols or mixtures thereof in sunflower oil (Example 1); format: physicochemical
Experimental: Each 15 g 1,2-pentanediol, 1,2-hexanediol, 1,2-heptanediol or 1,2-octanediol were dissolved in 85 g sunflower oil. Each 15 g of a mixture of 1,2-octanediol and 2,3-octanediol (95:5) or 1,2-heptanediol and 2,3-heptanediol (95:5) were dissolved in 85 g sunflower oil.

[3] = test system: skin (backside of hand) of untrained panelists; assay: Sensory evaluation by untrained panelists: heptanediols, octanediols and their mixtures blended 85:15 with liquid lipophilic components (Example 4, Table 22); set-up: species or system human; conditions: in vivo
Experimental: Test procedure: • Hands were pre-washed with liquid soap by following a defined procedure; • 30 μl of corresponding sample was applied on the backside of each hand (randomized); • After 30 s the spreading behaviour of the respective formulation on skin was evaluated versus the respective oil component without 1,2-heptanediol on a scale from 1 to 5 (1=low spreading; 5=high spreading); • The samples were distributed with the fingertips of middle and forefinger with 2×5 cycles; • After 2 minutes, the fatty/greasy skin feel was evaluated on a scale from 1 to 5 (1=low fatty/greasy skin feel; 5=high fatty/greasy skin feel); • Furthermore the applicants were asked to assess the absorption, i.e. the impression of amount of remaining residue on the skin on a scale from 1 to 5 (1=low absorption; 5=high absorption).
For evaluating the sensory behaviour, liquid lipophilic components specified in the following Table 22 were blended with 1,2-heptanediol or 2,3-heptanediol or a mixture of 1,2-heptanediol and 2,3-heptanediol or 1,2-octanediol or 2,3-octanediol or a mixture of 1,2-octanediol and 2,3-octanediol (formulation) in a ratio of 85:15 and assessed by untrained panelists in comparison to the liquid lipophilic component without addition of the specified alkanediols (placebo).
The test procedure was carried out in the same manner as described in Example 2.

SMILES	Maximum solubility in water [1] [% by weight]	solubility in sunflower oil [2]	improvement in spreading of liquid lipophilic components with poor spreading by nature [3]
CCCCCC(O)C(C)O (stereo not drawn) [2,3-octanediol]	1.5	–	–
CCCCCC(O)CO (stereo not drawn) [1,2-heptanediol]	2.5	better solubility	perform best
CCCCCCC(O)CO (stereo not drawn) [1,2-octanediol]	–	tends to precipitate or recrystallize	–

The remaining lines, values ahead:

Maximum solubility in water [1] [% by weight]	solubility in sunflower oil [2]	improvement in spreading of liquid lipophilic components with poor spreading by nature [3]	SMILES
0.1	–	–	CCCCCCCC(O)CO (stereo not drawn) [1,2-nonanediol]
0.3	–	–	CCCCCCC(O)C(C)O (stereo not drawn) [2,3-nonanediol]
0.5	–	–	CCCCCCC(O)CO (stereo not drawn) [Hydrolite ® 8, Caprylyl Glycol]
3.6	–	–	CCCCC(O)C(C)O (stereo not drawn) [2,3-heptanediol]
